Assay results published in article PMC9205682 (Biochimica et biophysica acta. Biomembranes, 2021).

Target: Mycobacterial membrane protein large 3 (Mmpl3) (Mycolicibacterium smegmatis, UniProt A0QP27)
Experiment: MicroScale Thermophoresis
Assay type: binding

Mycobacterial membrane protein large 3 (Mmpl3), sequence (A0QP27 whole entry): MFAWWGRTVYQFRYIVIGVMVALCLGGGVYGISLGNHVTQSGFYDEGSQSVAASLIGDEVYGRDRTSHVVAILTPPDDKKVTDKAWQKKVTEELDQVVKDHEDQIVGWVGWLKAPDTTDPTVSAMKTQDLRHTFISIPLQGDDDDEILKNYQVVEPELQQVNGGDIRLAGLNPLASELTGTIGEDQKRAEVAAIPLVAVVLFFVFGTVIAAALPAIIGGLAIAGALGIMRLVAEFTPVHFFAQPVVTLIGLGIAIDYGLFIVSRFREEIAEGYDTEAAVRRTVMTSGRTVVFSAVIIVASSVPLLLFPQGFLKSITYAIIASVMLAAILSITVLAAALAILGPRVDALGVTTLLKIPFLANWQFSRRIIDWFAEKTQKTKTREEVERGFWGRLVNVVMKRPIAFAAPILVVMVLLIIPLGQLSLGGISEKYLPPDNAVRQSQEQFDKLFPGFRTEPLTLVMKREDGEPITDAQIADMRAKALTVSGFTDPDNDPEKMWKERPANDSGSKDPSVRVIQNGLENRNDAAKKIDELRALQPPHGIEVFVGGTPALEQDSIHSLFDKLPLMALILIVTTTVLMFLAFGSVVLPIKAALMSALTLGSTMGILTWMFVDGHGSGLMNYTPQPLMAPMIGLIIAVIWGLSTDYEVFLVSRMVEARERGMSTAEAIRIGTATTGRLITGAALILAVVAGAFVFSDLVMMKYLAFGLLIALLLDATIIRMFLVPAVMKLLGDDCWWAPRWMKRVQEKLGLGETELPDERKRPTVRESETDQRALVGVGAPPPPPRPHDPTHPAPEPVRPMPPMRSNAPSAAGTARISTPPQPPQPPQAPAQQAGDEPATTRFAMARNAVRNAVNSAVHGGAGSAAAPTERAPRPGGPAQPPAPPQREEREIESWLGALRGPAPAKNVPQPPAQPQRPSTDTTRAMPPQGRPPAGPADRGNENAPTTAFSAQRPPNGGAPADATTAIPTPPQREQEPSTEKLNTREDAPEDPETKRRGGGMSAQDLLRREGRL

`CC(C)=CCC/C(C)=C/CNCCNC1C2CC3CC(C2)CC1C3` (stereo not shown) [SQ109] was tested, and the Kd was 1.56 µM.
